Data: ChEMBL document CHEMBL1201861, “Genomics of Drug Sensitity in Cancer screening data, Wellcome Trust Sanger Institute”

Experiments:
Type in all cases: functional, cell-based
SK-CO-1 = assay: cells; conditions: Homo sapiens
Description: SANGER: Inhibition of human SK-CO-1 cell growth in a cell viability assay.

MDA-MB-468 = assay: cells; conditions: Homo sapiens
Description: SANGER: Inhibition of human MDA-MB-468 cell growth in a cell viability assay.

COLO 205 = assay: cells; conditions: Homo sapiens
Description: SANGER: Inhibition of human COLO-205 cell growth in a cell viability assay.

C-4-II = assay: SANGER: Inhibition of human C-4-II cell growth in a cell viability assay.
SNG-M = assay: cells; conditions: Homo sapiens
Description: SANGER: Inhibition of human SNG-M cell growth in a cell viability assay.

RT-4 = assay: SANGER: Inhibition of human RT4 cell growth in a cell viability assay.
NCI-H1618 = assay: cells; conditions: Homo sapiens
Description: SANGER: Inhibition of human NCI-H1618 cell growth in a cell viability assay.

MFE-296 = assay: SANGER: Inhibition of human MFE-296 cell growth in a cell viability assay.
PLC-PRF-5 = assay: cells; conditions: Homo sapiens
Description: SANGER: Inhibition of human PLC-PRF-5 cell growth in a cell viability assay.

NCI-H838 = assay: cells; conditions: Homo sapiens
Description: SANGER: Inhibition of human NCI-H838 cell growth in a cell viability assay.

NCI-H2227 = assay: cells; conditions: Homo sapiens
Description: SANGER: Inhibition of human NCI-H2227 cell growth in a cell viability assay.

Calu-1 = assay: SANGER: Inhibition of human Calu-1 cell growth in a cell viability assay.
HCC1143 = assay: cells; conditions: Homo sapiens
Description: SANGER: Inhibition of human HCC1143 cell growth in a cell viability assay.

Caov-3 cell line = assay: cells; conditions: Homo sapiens
Description: SANGER: Inhibition of human Caov-3 cell growth in a cell viability assay.

KP-N-RT-BM-1 = assay: SANGER: Inhibition of human KP-N-RT-BM-1 cell growth in a cell viability assay.
CP67-MEL = assay: SANGER: Inhibition of human CP67-MEL cell growth in a cell viability assay.
SKM-1 = assay: SANGER: Inhibition of human SKM-1 cell growth in a cell viability assay.; conditions: Homo sapiens, SKM-1
NCI-H2107 = assay: SANGER: Inhibition of human NCI-H2107 cell growth in a cell viability assay.
CHP-134 = assay: SANGER: Inhibition of human CHP-134 cell growth in a cell viability assay.
SW 1116 = assay: cells; conditions: Homo sapiens
Description: SANGER: Inhibition of human SW1116 cell growth in a cell viability assay.

A549 = assay: cells; conditions: Homo sapiens
Description: SANGER: Inhibition of human A549 cell growth in a cell viability assay.

NCI-H1048 = assay: cells; conditions: Homo sapiens
Description: SANGER: Inhibition of human NCI-H1048 cell growth in a cell viability assay.

NBsusSR = assay: cells; conditions: Homo sapiens
Description: SANGER: Inhibition of human NBsusSR cell growth in a cell viability assay.

ZR-75-30 = assay: cells; conditions: Homo sapiens
Description: SANGER: Inhibition of human ZR-75-30 cell growth in a cell viability assay.

CFPAC-1 = assay: cells; conditions: Homo sapiens
Description: SANGER: Inhibition of human CFPAC-1 cell growth in a cell viability assay.

OC-314 = assay: cells; conditions: Homo sapiens
Description: SANGER: Inhibition of human OC-314 cell growth in a cell viability assay.

YH-13 = assay: cells; conditions: Homo sapiens
Description: SANGER: Inhibition of human YH-13 cell growth in a cell viability assay.

NCI-H2291 = assay: cells; conditions: Homo sapiens
Description: SANGER: Inhibition of human NCI-H2291 cell growth in a cell viability assay.

BT-549 = assay: cells; conditions: Homo sapiens
Description: SANGER: Inhibition of human BT-549 cell growth in a cell viability assay.

NCI-H2029 = assay: cells; conditions: Homo sapiens
Description: SANGER: Inhibition of human NCI-H2029 cell growth in a cell viability assay.

SW900 = assay: cells; conditions: Homo sapiens
Description: SANGER: Inhibition of human SW900 cell growth in a cell viability assay.

LU-135 = assay: cells; conditions: Homo sapiens
Description: SANGER: Inhibition of human LU-135 cell growth in a cell viability assay.

ECC10 = assay: cells; conditions: Homo sapiens
Description: SANGER: Inhibition of human ECC10 cell growth in a cell viability assay.

ECC12 = assay: cells; conditions: Homo sapiens
Description: SANGER: Inhibition of human ECC12 cell growth in a cell viability assay.

Caov-4 = assay: cells; conditions: Homo sapiens
Description: SANGER: Inhibition of human Caov-4 cell growth in a cell viability assay.

KNS-62 = assay: cells; conditions: Homo sapiens
Description: SANGER: Inhibition of human KNS-62 cell growth in a cell viability assay.

TC-YIK = assay: SANGER: Inhibition of human TC-YIK cell growth in a cell viability assay.

## COc1ccc(-c2cc3nccn3c(Nc3ncccc3C(N)=O)n2)cc1OC
SK-CO-1
  IC50: > 8000 nM
MDA-MB-468
  IC50: > 8000 nM
COLO 205
  IC50: 2350 nM
C-4-II
  IC50: > 8000 nM
SNG-M
  IC50: 2260 nM
RT-4
  IC50: 6560 nM
NCI-H1618
  IC50: > 8000 nM
MFE-296
  IC50: > 8000 nM
PLC-PRF-5
  IC50: > 8000 nM
NCI-H838
  IC50: > 8000 nM
NCI-H2227
  IC50: > 8000 nM
Calu-1
  IC50: > 8000 nM
HCC1143
  IC50: > 8000 nM
Caov-3 cell line
  IC50: > 8000 nM

## C=CC(=O)N1CCCC(Nc2nc(Nc3ccc(N(C)C(=O)CC)cc3)nc3[nH]cnc23)C1 (centres undefined)
KP-N-RT-BM-1
  IC50: > 10200 nM
CP67-MEL
  IC50: > 10200 nM
SKM-1
  IC50: > 10200 nM
NCI-H2107
  IC50: > 10200 nM

## COc1ccc(N(C(=O)Oc2c(C)cccc2C)c2ccnc(Nc3ccc(N4CCN(C)CC4)cc3)n2)c(OC)c1
KP-N-RT-BM-1
  IC50: > 5120 nM
CP67-MEL
  IC50: > 5120 nM
SKM-1
  IC50: > 5120 nM
NCI-H2107
  IC50: > 5120 nM

## OC[C@H](Cc1ccccc1)Nc1nc(Oc2ccc3c(c2)CCC3)nc2c1ncn2Cc1ccc(-c2ccccc2)cc1
SK-CO-1
  IC50: > 10200 nM
MDA-MB-468
  IC50: > 10200 nM
COLO 205
  IC50: 2290 nM
C-4-II
  IC50: > 10200 nM
SNG-M
  IC50: 5930 nM
RT-4
  IC50: > 10200 nM
NCI-H1618
  IC50: > 10200 nM
MFE-296
  IC50: > 10200 nM
PLC-PRF-5
  IC50: > 10200 nM
NCI-H838
  IC50: > 10200 nM
NCI-H2227
  IC50: > 10200 nM
Calu-1
  IC50: 2610 nM
HCC1143
  IC50: > 10200 nM
Caov-3 cell line
  IC50: > 10200 nM

## O=C1NC(=O)c2c1c(-c1ccccc1Cl)cc1[nH]c3ccc(O)cc3c21
CHP-134
  IC50: > 2000 nM
SW 1116
  IC50: > 2000 nM
A549
  IC50: > 2000 nM
NCI-H1048
  IC50: > 2000 nM
NBsusSR
  IC50: 952 nM
ZR-75-30
  IC50: > 2000 nM
CFPAC-1
  IC50: > 2000 nM
OC-314
  IC50: > 2000 nM
YH-13
  IC50: > 2000 nM
NCI-H2291
  IC50: > 2000 nM
BT-549
  IC50: > 2000 nM
NCI-H2029
  IC50: > 2000 nM
SW900
  IC50: > 2000 nM
LU-135
  IC50: > 2000 nM
ECC10
  IC50: 1410 nM

## Cc1cc(N2CCOCC2)cc2[nH]c(-c3c(NC[C@@H](O)c4cccc(Cl)c4)cc[nH]c3=O)nc12
KP-N-RT-BM-1
  IC50: 1440 nM
CP67-MEL
  IC50: 898 nM
SKM-1
  IC50: > 5120 nM
NCI-H2107
  IC50: > 5120 nM

## O=S(=O)(O)c1ccc2cc(/N=N/c3cc(S(=O)(=O)O)c4cccnc4c3O)ccc2c1
SK-CO-1
  IC50: > 16000 nM
MDA-MB-468
  IC50: > 16000 nM
COLO 205
  IC50: > 16000 nM
C-4-II
  IC50: > 16000 nM
SNG-M
  IC50: > 16000 nM
RT-4
  IC50: > 16000 nM
NCI-H1618
  IC50: > 16000 nM
ECC12
  IC50: > 16000 nM
MFE-296
  IC50: > 16000 nM
PLC-PRF-5
  IC50: > 16000 nM
Caov-4
  IC50: > 16000 nM
NCI-H838
  IC50: > 16000 nM
NCI-H2227
  IC50: > 16000 nM
Calu-1
  IC50: > 16000 nM
HCC1143
  IC50: > 16000 nM
Caov-3 cell line
  IC50: > 16000 nM

## NC(=O)c1cccc(-c2cc(Nc3ccc(OC(F)(F)F)cc3)ncn2)c1
KP-N-RT-BM-1
  IC50: > 1280 nM
CP67-MEL
  IC50: > 1280 nM
SKM-1
  IC50: > 1280 nM
NCI-H2107
  IC50: > 1280 nM

## NC(=O)Nc1cc(-c2cccc(F)c2)sc1C(=O)N[C@H]1CCCNC1 [AZD-7762]
SW 1116
  IC50: > 2000 nM
A549
  IC50: 1490 nM
NCI-H1048
  IC50: 919 nM
NBsusSR
  IC50: 318 nM
ZR-75-30
  IC50: > 2000 nM
CFPAC-1
  IC50: 723 nM
OC-314
  IC50: 78.1 nM
YH-13
  IC50: 157 nM
NCI-H2291
  IC50: > 2000 nM
BT-549
  IC50: 1270 nM
NCI-H2029
  IC50: > 2000 nM
SW900
  IC50: 1120 nM
LU-135
  IC50: > 2000 nM
ECC10
  IC50: > 2000 nM
KNS-62
  IC50: 566 nM

## CC(C)C[C@H](NC(=O)[C@H](Cc1ccccc1)NC(=O)c1cnccn1)B(O)O [BORTEZOMIB]
ECC12
  IC50: 1.37 nM
SKM-1
  IC50: > 20 nM
TC-YIK
  IC50: > 20 nM
NCI-H2227
  IC50: > 20 nM

## O=C(NCCCNc1nc(Nc2cccc(NC(=O)N3CCCC3)c2)ncc1I)c1cccs1 [BX-795]
CHP-134
  IC50: 1940 nM
SW 1116
  IC50: > 5000 nM
A549
  IC50: 2140 nM
NCI-H1048
  IC50: 1790 nM
NBsusSR
  IC50: 1250 nM
ZR-75-30
  IC50: > 5000 nM
CFPAC-1
  IC50: > 5000 nM
OC-314
  IC50: 3050 nM
YH-13
  IC50: 629 nM
NCI-H2291
  IC50: > 5000 nM
BT-549
  IC50: 4450 nM
NCI-H2029
  IC50: > 5000 nM
SW900
  IC50: > 5000 nM
LU-135
  IC50: > 5000 nM
KNS-62
  IC50: > 5000 nM
